US12458622B2, “Methods of treatment of coronavirus-induced inflammation conditions” (priority 2020, dated 2025)
Like-named read-outs stand apart in the source and are kept apart here.

Key:
Squirrel Monkeys = conditions: 6 months, cited from earlier work
Rhesus Monkeys = conditions: daily IV dosing at 0, 2, 10 and 50 mg/kg, 6 months; cited from earlier work
Stump-tailed Monkeys = conditions: cited from earlier work
pH of solution in saline = type: physicochemical; conditions: 25 mg in 25 ml of saline
Experimental: In some embodiments, the compounds of the invention are provided as part of a kit for infusion. The kit contains from about 25 mg to about 250 mg of the compound of Formula I or II in a volume of buffer or saline from about 25 ml to about 250 ml. The pH of saline or buffer pH ranges from about 5.8 to about 6.8. […] Alternatively, the buffer can be Ringer's lactate (pH 6.5). Alternatively yet, the buffer can be citrate buffer (pH 6.0).

Wistar Rats = conditions: 4% cromolyn 0, 4, 8, 16 mg/day, 3 month; cited from earlier work
Dog = conditions: cited from earlier work
Rabbit = conditions: Oral; cited from earlier work
Rat = conditions: cited from earlier work
BV2 microglial cells = assay: Aβ42 uptake, confocal microscopy and ELISA; type: cell-based; conditions: naive BV2 cells, 16 hours pretreatment then 2 hours with Aβ42, vs DMSO
Experimental: After incubation, the cells were labeled with a plasma membrane dye (PM, green) and imaged.

[1] = cited from earlier work
APP/PS1 mice = assay: Recruitment of microglial cells around amyloid plaques; conditions: mouse, in vivo

O=C(O)c1cc(=O)c2c(OCC(O)COc3cccc4oc(C(=O)O)cc(=O)c34)cccc2o1 [cromolyn]
Ill health, general toxicity, or nasal irritation (Squirrel Monkeys; 2% cromolyn 0, 2, 6, 12 mg/day): No signs of ill health, | Ill health, general toxicity, or nasal irritation (Squirrel Monkeys; 4% cromolyn 0, 5, 16, 32 mg/day): No signs of ill health, | Body weight, observations, clinical laboratory results, organ weights, gross and microscopic pathology (Rhesus Monkeys): within normal limits and | Survival until the scheduled necropsy (Stump-tailed Monkeys; single IV dose 333 mg/kg, 4 to 10-day observation): given 333 mg/kg survived | Clinical signs (Stump-tailed Monkeys; single IV dose 5082 mg/kg): stertorous breathing, | Time to death of one monkey (Stump-tailed Monkeys; single IV dose 5082 mg/kg): mg/kg died within 4 hours | pH (pH of solution in saline): 6.8 | General toxicity (Wistar Rats): No general toxic effects. | LD50 Value (Dog; IV): >1600 mg/kg | LD50 Value (Dog; Oral): >4 gm/kg | LD50 Value (Rabbit): >8 gm/kg | LD50 Value (Rat; IP): >4 gm/kg | LD50 Value (Rat; IV): >4 gm/kg | LD50 Value (Rat; Oral): >11 gm/kg | LD50 Value (Rat; SC): 6 gm/kg | Aβ42 uptake (BV2 microglial cells): increased Aβ42 uptake | Adverse effects in repeat dose studies ([1]; all routes of administration): No adverse effects | Renal toxicity ([1]; dosing of high concentration, precipitation in the renal tubules): renal damage was observed | Recruitment of microglial cells around amyloid plaques (APP/PS1 mice): increased recruitment of microglial cells
